A short description of series [1]: Stability study under accelerated conditions, 40° C./75% RH, examined by XRPD.
Series [2] is described as follows: Dissolution study, USP Apparatus 2 (paddle), distilled water containing 2.2% SDS. The format is physicochemical. Particulars: 2.2% SDS in purified water. The protocol: Material providing 125 mg of aprepitant was used in each dissolution experiment and in each experiment the test sample was added directly to the dissolution media as a loose powder.
Analysis was carried out by HPLC/UV using an Agilent 1100/1200 series HPLC system with UV variable wavelength detection. Standards were prepared in acetonitrile at 0.14 mg/ml. All standard and sample solutions were filtered through 0.45 μm filters.

The conditions of series [3]: nanoparticulate formulation (marketed capsules, oral); cited from earlier work.
For series [4] the following is noted: low solubility and low permeability API; cited from earlier work.
For series [5] the following is noted: cited from earlier work.
The mark [6] stands for this setting: 0 mins, 900 ml, 37.0° C., 100 rpm, material providing 125 mg aprepitant, triplicate.
Where [7] appears, read: 180 mins (infinity time point), 37.0° C., 100 rpm.

Where two headings read alike, the source gives them in different places.

As to `C[C@@H](O[C@H]1OCCN(Cc2n[nH]c(=O)[nH]2)[C@H]1c1ccc(F)cc1)c1cc(C(F)(F)F)cc(C(F)(F)F)c1.O.O=C(O)[C@@H]1CCCN1`, the “XRPD Characterization” value in series [1] (1 month), in series [1] (1 week), in series [1] (2 months), in series [1] (2 week), in series [1] (3 months) and in series [1] (3 week) was “cocrystal” throughout. For the same molecule, the “XRPD Characterization” value in series [1] (6 months) and in series [1] (time point 0) was “cocrystal” each time. In series [1] (six month period), the “physical stability with respect to dissociation into starting components” value is “stable”. Also, the mean dissolution value was 0.0% in series [2] (setting [6]); “more than 93%” in series [2] (1 min, 37.0° C., 100 rpm); 93.4% in series [2] (1 min, 37.0° C., 100 rpm, listed as 1:1:1 Aprepitant L-proline cocrystal); 95.7% in series [2] (2 mins, 37.0° C., 100 rpm); 95.6% in series [2] (3 mins, 37.0° C., 100 rpm); 95.8% in series [2] (4 mins, 37.0° C., 100 rpm). Moreover, the mean dissolution value in series [2] (5 mins, 37.0° C., 100 rpm) came out at 95.1%; in series [2] (10 mins, 37.0° C., 100 rpm), 95.5%; in series [2] (15 mins, 37.0° C., 100 rpm) it was 95.9%; in series [2] (20 mins, 37.0° C., 100 rpm) it was 96.0%; in series [2] (30 mins, 37.0° C., 100 rpm), 96.2%; in series [2] (45 mins, 37.0° C., 100 rpm), 96.8%. Moreover, the mean dissolution value in series [2] (60 mins, 37.0° C., 100 rpm) was found to be 97.0%; in series [2] (setting [7]), 99.2%. Also, in series [2] (up to 180 minutes), the “behaviour once dissolved (re-precipitation of the API)” value is “remained in solution with no re-precipitation of the API”.

Take `C[C@@H](O[C@H]1OCCN(Cc2nc(=O)[nH][nH]2)[C@H]1c1ccc(F)cc1)c1cc(C(F)(F)F)cc(C(F)(F)F)c1` [Crystalline Aprepitant, reference compound]: the mean absolute bioavailability in series [3] is 60-65%. Besides, the BCS class result in series [4] is given as “Class IV”. In addition, the solubility result in series [5] (in acetonitrile) is “slightly soluble”; in series [5] (in ethanol) it was “sparingly soluble”; in series [5] (in isopropyl acetate) it was “sparingly soluble”; in series [5] (in water), “practically insoluble”. The mean dissolution value is on record as 0.0% in series [2] (setting [6]); 18.5% in series [2] (1 min, 37.0° C., 100 rpm); 34.4% in series [2] (2 mins, 37.0° C., 100 rpm); 44.2% in series [2] (3 mins, 37.0° C., 100 rpm); 52.2% in series [2] (4 mins, 37.0° C., 100 rpm); 57.6% in series [2] (5 mins, 37.0° C., 100 rpm). Also, the mean dissolution value in series [2] (10 mins, 37.0° C., 100 rpm) is 70.1%; in series [2] (15 mins, 37.0° C., 100 rpm), 77.2%; in series [2] (20 mins, 37.0° C., 100 rpm), 80.4%; in series [2] (30 mins, 37.0° C., 100 rpm), 85.4%; in series [2] (45 mins, 37.0° C., 100 rpm), 87.3%; in series [2] (60 mins, 37.0° C., 100 rpm), 89.3%. Also, the mean dissolution value in series [2] (setting [7]) worked out at 94.6%. Besides, in series [2] (37.0° C., 100 rpm), the “time to achieve the same level of dissolution that the cocrystal achieved within the first minute” value was about 180 min.
